Active and inactive are the calls of the source. The rule behind the calls is not given here.
Tested on: West Nile virus-infected cells, virus titer reduction
Test: WNV titer decrease in infected cells – cell-based, synthesized compounds (AID 2065)
Conditions: at 20 µM (top of the series)

SMILES | log titer change, negative = inhibition
OC1c2cc(Br)ccc2N=C2CCCN21 (stereo not given) | -5.53
CCOC(=O)C1(Cc2ccccc2C(F)(F)F)CCN(C2CCN(C(C)C)CC2)CC1 | 1.18 (inactive)
COc1ccc(-c2csc(N(CCCN(C)C)C(=O)c3ccccc3Cl)n2)cc1 | -3.82
CCN(CC)CCCNC(=S)N1CCN(c2nc(-c3ccccc3)cs2)CC1 | -5.48
COc1ccc(-c2csc(N(CCCN(C)C)C(=O)c3ccccc3C)n2)cc1 | -0.48 (inactive)
O=C(CSc1nc2ccccc2c(=O)n1-c1ccc(F)cc1F)Nc1ccc2c(c1)CCC2 | -3.82
CN(C)CCCN1c2ccc([N+](=O)[O-])cc2CCc2cc([N+](=O)[O-])ccc21 | -3.82
CN(C)CCCNC(=S)N1CCN(c2nc(-c3ccccc3)cs2)CC1 | -2.32
O=C(CSc1nc2ccccc2c(=O)n1-c1ccc(F)cc1F)Nc1ccc(N2CCOCC2)cc1 | -4.15
O=C(CSc1nc2ccccc2c(=O)n1-c1ccc(F)cc1)Nc1ccc2c(c1)CCC2 | -4.18

Source: PubChem BioAssay AID2065 (Southern Research Specialized Biocontainment Screening …, 2009)
